Measurements published in patent US20250281479A1, “TREATMENT OF CAVERNOUS ANGIOMAS WITH A 4-SUBSTITUTED PIPERIDINE DERIVATIVE” (Neurelis, Inc., priority 2024, published 2025).
Like-named read-outs stand apart in the source and are kept apart here.

What was measured:
Format in all cases: in vitro ADME
[1] = tested on: CYP3A4/5; test: CYP inhibition; conditions: human
Method: (§1) Exposure to NRL-2017 was similar or greater (up to 5-fold) than that to NRL-1049 in rats when dosed once a day (QD). In monkeys, exposure to NRL-2017 was also greater (up to 33-fold) than that to NRL-1049. When rats were dosed twice a day (BID) for 14 days, there was a decrease in formation of NRL-2017 with exposure to NRL-2017 lower than that of NRL-1049 (ratio as low as 0.06). […] NRL-1049 bound to human serum albumin and human alpha1-acid glycoprotein. […] There was also inhibition of P-glycoprotein (P-gp) (only CACO-2 cells), organic anion transporting polypeptides (OATP) OATP1B1, OATP1B3 and OAT3 (IC50, >100 μM), but no effect on P-gp (MDCK2 cells), breast cancer resistance protein (BCRP), bile salt export pump (BSEP), or MATE2-K. NRL-1049 is a substrate for P-gp, not BCRP. […] This conclusion will be revisited when human pharmacokinetic (PK) data becomes available.

[2] = molecular target: CYP2D6 (Homo sapiens, UniProt P10635); test: CYP inhibition; conditions: read-out: half-maximal inhibitory concentration (IC50)
Method: as §1

[3] = tested on: CYP1A2; test: CYP induction in hepatocyte culture; conditions: in at least one hepatocyte culture
Method: as §1

[4] = tested on: CYP3A4; test: CYP induction in hepatocyte culture; conditions: in at least one hepatocyte culture
Method: as §1

CYP2D6, sequence (P10635 whole entry): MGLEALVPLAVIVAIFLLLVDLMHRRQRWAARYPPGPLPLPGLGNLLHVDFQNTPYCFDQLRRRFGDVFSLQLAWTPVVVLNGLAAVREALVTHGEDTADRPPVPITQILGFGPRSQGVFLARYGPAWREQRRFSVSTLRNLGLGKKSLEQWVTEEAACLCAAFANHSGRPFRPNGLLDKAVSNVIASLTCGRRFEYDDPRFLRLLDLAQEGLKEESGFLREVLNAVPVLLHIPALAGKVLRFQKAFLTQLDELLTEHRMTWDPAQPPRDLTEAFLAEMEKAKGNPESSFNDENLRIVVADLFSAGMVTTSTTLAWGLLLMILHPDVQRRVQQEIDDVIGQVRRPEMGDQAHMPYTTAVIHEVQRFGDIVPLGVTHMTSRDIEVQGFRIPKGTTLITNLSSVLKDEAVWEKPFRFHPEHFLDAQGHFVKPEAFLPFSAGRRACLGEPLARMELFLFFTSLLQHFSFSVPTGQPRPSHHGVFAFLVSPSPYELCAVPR

With `C[C@@H](N)C1CCN(S(=O)(=O)c2cccc3cnccc23)CC1` [NRL-1049] the IC50 ([1]; first of the two values printed 23/110, read-out: half-maximal inhibitory concentration (IC50)) was 23 µM, the IC50 ([1]; second of the two values printed 23/110, read-out: half-maximal inhibitory concentration (IC50)) was 110 µM and the IC50 [2] was 0.18 µM. The “induction of CYP1A2” value [3] was 3 fold, the “induction of CYP3A4, maximal effective concentration [Emax]” value [4] was 2.19 fold and the EC50 ([4]; read-out: induction of CYP3A4, half-maximal effective concentration [EC50]) was 41.5 µM.
